Data from patent US20080058703A1, “Drug electrotransport with hydration measurement of hydratable reservoir” (priority 2006, published 2008).

Test: In vitro skin flux of apomorphine by electrotransport from hydrated TECOGEL matrix (horizontal diffusion cell)
Format: in vitro ADME
Conditions: in vitro electrotransport from hydrated TECOGEL matrix across heat separated human epidermis
From the text: The diamond symbols show the average data points at particular time intervals and the vertical lines show the standard deviation. Measurement of impedance during hydration of TECOGEL® is reported in FIG. 8 and described in Example 3 below. The flux of apomorphine free base is plotted as a function of electrotransport time (in hrs). The unit for the flux is μg/cm^2 hr. […] It is noted that the TECOGEL® was used to illustrate that hydration can be done and the level of hydration measured. The exact type of polyurethane gel used is not critical as long a gel can be formed that can allow drug ions to migrate under an electrical potential.
The following methodology was used for the in vitro flux experiments for illustrative purposes:
Custom-built horizontal diffusion cells made in-house from DELRIN® polymeric material were used for the in vitro skin flux experiments and heat separated human epidermis was used. A consumable Ag electrode with the same polarity as the drug was adhered to one end of a DELRIN® material diffusion cell that functioned as the donor cell. […]
A Hanson Research MICROETTE™ collection system, interfaced to the experimental set up, collected the drug containing receptor solution from the reservoir underneath the skin directly into HPLC vials. […] The Hanson system collected samples to be analyzed by an HPLC to determine delivery efficiency of the drug in the formulation. […]

In the case of CN1CCc2cccc3c2[C@H]1Cc1ccc(O)c(O)c1-3 [apomorphine], the “rise to steady state time” value is reported as “about 3 hours” and the “steady state flux of apomorphine free base” value (37° C., until about 24 hours) is reported as “about 32 μg/cm^2 hr”.
